Here are results for one molecule from BindingDB's records for doi:10.1021/jm990229t (Ariad Pharmaceuticals, 1999).

In assay [1] the target is T1, Tyrosine-protein kinase ZAP-70 (Homo sapiens, UniProt P43403).
T1 sequence (P43403 whole entry): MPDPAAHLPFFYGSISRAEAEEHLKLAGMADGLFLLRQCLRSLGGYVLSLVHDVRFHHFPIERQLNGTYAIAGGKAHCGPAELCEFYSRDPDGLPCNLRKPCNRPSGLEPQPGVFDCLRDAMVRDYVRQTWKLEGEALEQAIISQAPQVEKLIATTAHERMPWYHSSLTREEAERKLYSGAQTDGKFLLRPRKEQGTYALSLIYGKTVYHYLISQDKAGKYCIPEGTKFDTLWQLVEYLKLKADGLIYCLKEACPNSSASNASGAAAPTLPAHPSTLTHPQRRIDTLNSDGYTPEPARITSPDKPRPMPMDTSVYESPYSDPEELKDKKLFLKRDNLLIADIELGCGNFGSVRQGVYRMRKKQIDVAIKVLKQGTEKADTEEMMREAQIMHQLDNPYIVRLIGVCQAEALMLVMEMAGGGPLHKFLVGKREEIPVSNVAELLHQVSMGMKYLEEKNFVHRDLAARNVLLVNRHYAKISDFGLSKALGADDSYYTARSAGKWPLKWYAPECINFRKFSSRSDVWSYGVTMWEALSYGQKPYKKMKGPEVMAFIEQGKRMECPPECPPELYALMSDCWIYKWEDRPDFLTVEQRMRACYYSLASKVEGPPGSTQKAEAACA
The experiment in a line: Competitive Binding Assay. The conditions noted are these: pH 7.4; 22 °C. As for the experimental part: (§1) Fluorescence polarization competitive binding assays were used to measure the IC50s of compounds binding to the different SH2 domains. The difference in polarization values of fluorescein-conjugated peptide reflects the bound and unbound state of the probe. IC50s were calculated based on the binding of the fluorescein-conjugated peptide to the protein with compound addition relative to vehicle-alone control samples.

In assay [2] the target is Proto-oncogene tyrosine-protein kinase Src (Homo sapiens, UniProt P12931). The assay is described as follows: Competitive Binding Assay. The conditions noted are these: pH 7.4; 22 °C. As for the experimental part:
as §1

pIC50: −log10 of the molar value.

Chain of Proto-oncogene tyrosine-protein kinase Src (P12931 2-536 limits assumed): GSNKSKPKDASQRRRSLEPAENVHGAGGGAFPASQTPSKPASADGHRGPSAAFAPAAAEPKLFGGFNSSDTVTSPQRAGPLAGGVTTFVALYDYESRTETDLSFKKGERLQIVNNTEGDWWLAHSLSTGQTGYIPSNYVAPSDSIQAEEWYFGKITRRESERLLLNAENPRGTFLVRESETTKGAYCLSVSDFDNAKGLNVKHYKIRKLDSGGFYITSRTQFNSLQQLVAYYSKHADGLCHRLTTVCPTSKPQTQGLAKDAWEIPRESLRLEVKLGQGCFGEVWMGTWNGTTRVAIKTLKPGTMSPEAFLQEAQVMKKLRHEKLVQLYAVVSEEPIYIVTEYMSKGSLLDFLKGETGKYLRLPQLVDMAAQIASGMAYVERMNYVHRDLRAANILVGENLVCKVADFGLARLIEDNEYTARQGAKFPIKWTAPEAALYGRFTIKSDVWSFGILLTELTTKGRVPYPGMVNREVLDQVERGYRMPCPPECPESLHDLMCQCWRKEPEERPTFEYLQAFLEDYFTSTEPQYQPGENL

As to `CC(=O)N[C@@H](Cc1ccc(OP(=O)(O)O)cc1)C(=O)N[C@@H](CCC(N)=O)c1nc(Cc2c(C)cc(C)cc2C)no1` [4-[(2S)-2-{[(1S)-3-carbamoyl-1-{3-[(2,4,6-trimethylphenyl)methyl]-1,2,4-oxadiazol-5-yl}propyl]carbamoyl}-2-acetamidoethyl]phenoxyphosphonic acid], the pIC50 was below 3.30 in assay [1] and 3.51 in assay [2].
